{"source": "patent US20230348442A1", "about": "“GALECTIN-3 INHIBITING 2-HYDROXYCYCLOALKANE-1-CARBAMOYL DERIVATIVES” (Idorsia Pharmaceuticals Ltd, priority 2020, published 2023)", "data": [{"molecular_target": "human Gal-3 (hGal-3) (Homo sapiens (Human), UniProt P17931)", "sequence (P17931 whole entry)": "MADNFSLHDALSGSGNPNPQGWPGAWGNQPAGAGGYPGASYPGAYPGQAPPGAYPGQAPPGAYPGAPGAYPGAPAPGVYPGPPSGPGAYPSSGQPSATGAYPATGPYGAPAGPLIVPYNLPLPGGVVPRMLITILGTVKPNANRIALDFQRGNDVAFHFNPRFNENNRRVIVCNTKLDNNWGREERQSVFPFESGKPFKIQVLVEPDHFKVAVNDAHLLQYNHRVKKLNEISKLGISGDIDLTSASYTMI", "assay": "competitive binding assay: binding of biotinylated hGal-3 to microplate-adsorbed asialofetuin (ASF), spectrophotometric", "details": "Activity on hGal-3; mean values of several measurements", "description": "Evaluation of Compound Inhibitory Activity (IC50)\nThe inhibitory activity of compounds is determined in competitive binding assays. This spectrophotometric assay measures the binding of biotinylated human Gal-3 (hGal-3) or human Gal-1 (hGal-1), respectively, to a microplate-adsorbed glycoprotein, asialofetuin (ASF) (Proc Natl Acad Sci USA. 2013 Mar. 26; 110(13):5052-7.). Alternatively, and preferably, a human Gal-1 version in which all six cysteines are substituted by serines may be used.\nBriefly, compounds are serially diluted in DMSO (working dilutions). ASF-coated 384 well plates are supplemented with 22.8 μL/well of biotinylated hGal-3 or hGal-1 in assay buffer (i.e. 300-1000 ng/mL biotinylated hGal-3 or hGal-1) to which 1.2 μL of compound working dilutions are added and mixed.\nPlates are incubated for 3 hours at 4° C., then washed with cold assay buffer (3×50 uL), incubated for 1 hour with 25 μL/well of a streptavidin-peroxidase solution (diluted in assay buffer to 80 ng/mL) at 4° C., followed by further washing steps with assay buffer (3×50 uL). Finally, 25 μL/well of ABTS substrate is added.\nThe calculated IC50 values may fluctuate depending on the daily assay performance. Fluctuations of this kind are known to those skilled in the art. IC50 values from several measurements are given as mean values.", "units": {"IC50": "µM"}, "values": [{"compound": "CO[C@@H]1[C@@H](n2cc(-c3cc(F)c(F)c(F)c3)nn2)[C@@H](O)[C@@H](CO)O[C@H]1C(=O)N(c1cc(C)cc(Br)c1)[C@H]1CCC[C@@H]1O", "note": "[Example 1.1.12, (2R,3R,4S,5R,6R)-N-(3-bromo-5-methylphenyl)-5-hydroxy-N-((1S,2S)-2-hydroxycyclopentyl)-6-(hydroxymethyl)-3-methoxy-4-(4-(3,4,5-trifluorophenyl)-1H-1,2,3-triazol-1-yl)tetrahydro-2H-pyran-2-carboxamide]", "IC50": 0.0347}, {"compound": "CO[C@@H]1[C@@H](n2cc(-c3cc(F)c(F)c(Cl)c3)nn2)[C@@H](O)[C@@H](CO)O[C@H]1C(=O)N(c1cc(Cl)cc(C#N)c1)[C@H]1CC[C@@H]1O", "note": "[Example 2.7.4, (2R,3R,4S,5R,6R)-4-(4-(3-chloro-4,5-difluorophenyl)-1H-1,2,3-triazol-1-yl)-N-(3-chloro-5-cyanophenyl)-5-hydroxy-N-((1S,2S)-2-hydroxycyclobutyl)-6-(hydroxymethyl)-3-methoxytetrahydro-2H-pyran-2-carboxamide]", "IC50": 0.0786}, {"compound": "COc1cc(-c2cn([C@H]3[C@@H](O)[C@@H](CO)O[C@@H](C(=O)N(c4cc(Cl)cc(Cl)c4)[C@H]4CCC[C@@H]4O)[C@@H]3OC)nn2)cc(F)c1F", "note": "[Example 1.3.2, (2R,3R,4S,5R,6R)-N-(3,5-dichlorophenyl)-4-(4-(3,4-difluoro-5-methoxyphenyl)-1H-1,2,3-triazol-1-yl)-5-hydroxy-N-((1S,2S)-2-hydroxycyclopentyl)-6-(hydroxymethyl)-3-methoxytetrahydro-2H-pyran-2-carboxamide]", "IC50": 0.0295}, {"compound": "CO[C@@H]1[C@@H](n2cc(-c3cc(F)c(F)c(F)c3)nn2)[C@@H](O)[C@@H](CO)O[C@H]1C(=O)N(c1cc(Cl)cc(C#N)c1)[C@@H]1CC[C@H]1O", "note": "[Example 2.1.4R, (2R,3R,4S,5R,6R)-N-(3-chloro-5-cyanophenyl)-5-hydroxy-N-((1R,2R)-2-hydroxycyclobutyl)-6-(hydroxymethyl)-3-methoxy-4-(4-(3,4,5-trifluorophenyl)-1H-1,2,3-triazol-1-yl)tetrahydro-2H-pyran-2-carboxamide]", "IC50": 0.39}, {"compound": "CO[C@@H]1[C@@H](n2cc(-c3cc(F)c(F)c(Cl)c3)nn2)[C@@H](O)[C@@H](CO)O[C@H]1C(=O)N(c1cc(Br)cc(C#N)c1)[C@@H]1CC[C@H]1O", "note": "[Example 2.7.5R, (2R,3R,4S,5R,6R)-N-(3-bromo-5-cyanophenyl)-4-(4-(3-chloro-4,5-difluorophenyl)-1H-1,2,3-triazol-1-yl)-5-hydroxy-N-((1R,2R)-2-hydroxycyclobutyl)-6-(hydroxymethyl)-3-methoxytetrahydro-2H-pyran-2-carboxamide]", "IC50": 0.232}, {"compound": "CO[C@@H]1[C@@H](n2cc(-c3cc(F)c(F)c(F)c3)nn2)[C@@H](O)[C@@H](CO)O[C@H]1C(=O)N(c1cc(Cl)cc(Cl)c1)[C@@H]1CCC[C@H]1O", "note": "[Example 1.1.2R, (2R,3R,4S,5R,6R)-N-(3,5-dichlorophenyl)-5-hydroxy-N-((1R,2R)-2-hydroxycyclopentyl)-6-(hydroxymethyl)-3-methoxy-4-(4-(3,4,5-trifluorophenyl)-1H-1,2,3-triazol-1-yl)tetrahydro-2H-pyran-2-carboxamide]", "IC50": 0.104}, {"compound": "CO[C@@H]1[C@@H](n2cc(-c3cc(F)c(Cl)c(F)c3)nn2)[C@@H](O)[C@@H](CO)O[C@H]1C(=O)N(c1cc(Br)cc(C#N)c1)[C@H]1CC[C@@H]1O", "note": "[Example 2.5.5, (2R,3R,4S,5R,6R)-N-(3-bromo-5-cyanophenyl)-4-(4-(4-chloro-3,5-difluorophenyl)-1H-1,2,3-triazol-1-yl)-5-hydroxy-N-((1S,2S)-2-hydroxycyclobutyl)-6-(hydroxymethyl)-3-methoxytetrahydro-2H-pyran-2-carboxamide]", "IC50": 0.047}, {"compound": "CC(=O)O[C@@H]1[C@@H](n2cc(-c3cc(F)c(C)c(F)c3)nn2)[C@@H](O)[C@@H](CO)O[C@H]1C(=O)N(c1cc(Cl)cc(Cl)c1)[C@H]1CCC[C@@H]1O", "note": "[Example 1A.4.2, (2R,3R,4S,5R,6R)-2-((3,5-dichlorophenyl)((1S,2S)-2-hydroxycyclopentyl)carbamoyl)-4-(4-(3,5-difluoro-4-methylphenyl)-1H-1,2,3-triazol-1-yl)-5-hydroxy-6-(hydroxymethyl)tetrahydro-2H-pyran-3-yl acetate]", "IC50": 0.0129}, {"compound": "CO[C@@H]1[C@@H](n2cc(-c3cc(F)cc(Br)c3)nn2)[C@@H](O)[C@@H](CO)O[C@H]1C(=O)N(c1cc(F)cc(C#N)c1)[C@@H]1CCC[C@H]1O", "note": "[Example 1.10.7R, (2R,3R,4S,5R,6R)-4-(4-(3-bromo-5-fluorophenyl)-1H-1,2,3-triazol-1-yl)-N-(3-cyano-5-fluorophenyl)-5-hydroxy-N-((1R,2R)-2-hydroxycyclopentyl)-6-(hydroxymethyl)-3-methoxytetrahydro-2H-pyran-2-carboxamide]", "IC50": 1.03}, {"compound": "CO[C@@H]1[C@@H](n2cc(-c3ccc(Br)c(F)c3F)nn2)[C@@H](O)[C@@H](CO)O[C@H]1C(=O)N(c1cc(Cl)cc(Cl)c1)[C@@H]1CC[C@H]1O", "note": "[Example 2.12.2R, (2R,3R,4S,5R,6R)-4-(4-(4-bromo-2,3-difluorophenyl)-1H-1,2,3-triazol-1-yl)-N-(3,5-dichlorophenyl)-5-hydroxy-N-((1R,2R)-2-hydroxycyclobutyl)-6-(hydroxymethyl)-3-methoxytetrahydro-2H-pyran-2-carboxamide]", "IC50": 0.1}, {"compound": "CO[C@@H]1[C@@H](n2cc(-c3cc(F)c(C)c(F)c3)nn2)[C@@H](O)[C@@H](CO)O[C@H]1C(=O)N(c1cc(Cl)cc(C#N)c1)[C@@H]1CCC[C@H]1O", "note": "[Example 1.4.4R, (2R,3R,4S,5R,6R)-N-(3-chloro-5-cyanophenyl)-4-(4-(3,5-difluoro-4-methylphenyl)-1H-1,2,3-triazol-1-yl)-5-hydroxy-N-((1R,2R)-2-hydroxycyclopentyl)-6-(hydroxymethyl)-3-methoxytetrahydro-2H-pyran-2-carboxamide]", "IC50": 0.0748}, {"compound": "CO[C@@H]1[C@@H](n2cc(-c3ccc(Br)c(F)c3F)nn2)[C@@H](O)[C@@H](CO)O[C@H]1C(=O)N(c1cc(Cl)cc(C#N)c1)[C@@H]1CCC[C@H]1O", "note": "[Example 1.12.4R, (2R,3R,4S,5R,6R)-4-(4-(4-bromo-2,3-difluorophenyl)-1H-1,2,3-triazol-1-yl)-N-(3-chloro-5-cyanophenyl)-5-hydroxy-N-((1R,2R)-2-hydroxycyclopentyl)-6-(hydroxymethyl)-3-methoxytetrahydro-2H-pyran-2-carboxamide]", "IC50": 0.0907}, {"compound": "CO[C@@H]1[C@@H](n2cc(-c3cc(F)c(Cl)c(Cl)c3)nn2)[C@@H](O)[C@@H](CO)O[C@H]1C(=O)N(c1cc(Br)cc(C#N)c1)[C@H]1CCC[C@@H]1O", "note": "[Example 1.17.5, (2R,3R,4S,5R,6R)-N-(3-bromo-5-cyanophenyl)-4-(4-(3,4-dichloro-5-fluorophenyl)-1H-1,2,3-triazol-1-yl)-5-hydroxy-N-((1S,2S)-2-hydroxycyclopentyl)-6-(hydroxymethyl)-3-methoxytetrahydro-2H-pyran-2-carboxamide]", "IC50": 0.0463}, {"compound": "COc1cc(-c2cn([C@H]3[C@@H](O)[C@@H](CO)O[C@@H](C(=O)N(c4cc(Br)cc(Br)c4)[C@@H]4CC[C@H]4O)[C@@H]3OC)nn2)cc(F)c1F", "note": "[Example 2.3.11R, (2R,3R,4S,5R,6R)-N-(3,5-dibromophenyl)-4-(4-(3,4-difluoro-5-methoxyphenyl)-1H-1,2,3-triazol-1-yl)-5-hydroxy-N-((1R,2R)-2-hydroxycyclobutyl)-6-(hydroxymethyl)-3-methoxytetrahydro-2H-pyran-2-carboxamide]", "IC50": 0.258}, {"compound": "CO[C@@H]1[C@@H](n2cc(-c3ccc(Br)c(F)c3F)nn2)[C@@H](O)[C@@H](CO)O[C@H]1C(=O)N(c1cc(F)cc(C#N)c1)[C@@H]1CCC[C@H]1O", "note": "[Example 1.12.7R, (2R,3R,4S,5R,6R)-4-(4-(4-bromo-2,3-difluorophenyl)-1H-1,2,3-triazol-1-yl)-N-(3-cyano-5-fluorophenyl)-5-hydroxy-N-((1R,2R)-2-hydroxycyclopentyl)-6-(hydroxymethyl)-3-methoxytetrahydro-2H-pyran-2-carboxamide]", "IC50": 0.0946}, {"compound": "CO[C@@H]1[C@@H](n2cc(-c3cc(F)c(F)c(Cl)c3)nn2)[C@@H](O)[C@@H](CO)O[C@H]1C(=O)N(c1cc(Cl)cc(C#N)c1)[C@H]1CCC[C@@H]1O", "note": "[Example 1.7.4, (2R,3R,4S,5R,6R)-4-(4-(3-chloro-4,5-difluorophenyl)-1H-1,2,3-triazol-1-yl)-N-(3-chloro-5-cyanophenyl)-5-hydroxy-N-((1S,2S)-2-hydroxycyclopentyl)-6-(hydroxymethyl)-3-methoxytetrahydro-2H-pyran-2-carboxamide]", "IC50": 0.0334}, {"compound": "CC(=O)O[C@@H]1[C@@H](n2cc(-c3cc(F)c(F)c(F)c3)nn2)[C@@H](O)[C@@H](CO)O[C@H]1C(=O)N(c1cc(Cl)cc(Cl)c1)[C@H]1CCC[C@@H]1O", "note": "[Example 1A.1.2, (2R,3R,4S,5R,6R)-2-((3,5-dichlorophenyl)((1S,2S)-2-hydroxycyclopentyl)carbamoyl)-5-hydroxy-6-(hydroxymethyl)-4-(4-(3,4,5-trifluorophenyl)-1H-1,2,3-triazol-1-yl)tetrahydro-2H-pyran-3-yl acetate]", "IC50": 0.023}]}]}
